Patent US20040209914A1, “Aromatic sulfone hydroxamic acids and their use as protease inhibitors” (priority 2000, published 2004)
Read-outs that look alike come from different tables or passages of the source.

Assays:
Test in all cases: biochemical
Conditions in all cases: fluorogenic MCA-peptide substrate, pH 7.5, room temperature
Recombinant human MMP-2 = target: T1, Recombinant human MMP-2 (Homo sapiens, UniProt P08253)
T1 construct: made in house
T1 sequence (P08253 110-660): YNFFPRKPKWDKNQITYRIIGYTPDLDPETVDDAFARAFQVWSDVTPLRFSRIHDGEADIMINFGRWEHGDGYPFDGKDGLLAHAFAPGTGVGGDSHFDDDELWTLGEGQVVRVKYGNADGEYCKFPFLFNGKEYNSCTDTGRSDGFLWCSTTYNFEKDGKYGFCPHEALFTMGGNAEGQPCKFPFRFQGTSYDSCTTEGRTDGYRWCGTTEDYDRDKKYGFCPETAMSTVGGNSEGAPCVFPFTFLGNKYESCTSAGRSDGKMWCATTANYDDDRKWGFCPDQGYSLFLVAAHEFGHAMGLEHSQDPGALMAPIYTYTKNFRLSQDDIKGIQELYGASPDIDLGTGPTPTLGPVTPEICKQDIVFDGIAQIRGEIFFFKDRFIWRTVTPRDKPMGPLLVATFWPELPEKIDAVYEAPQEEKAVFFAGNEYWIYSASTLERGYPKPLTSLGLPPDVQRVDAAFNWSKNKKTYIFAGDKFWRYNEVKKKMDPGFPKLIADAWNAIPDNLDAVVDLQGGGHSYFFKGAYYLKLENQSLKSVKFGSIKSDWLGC
Method: (§1) Recombinant human MMP-1, MMP-2, MMP-9, MMP-13, and were used in this assay. These enzymes were prepared in the Assignee's es following usual laboratory procedures. Specifics for preparing and e enzymes can be found in the scientific literature describing these See, e.g., Enzyme Nomenclature (Academic Press, San Diego, Calif., d the citations therein).
The MMP-2 was obtained from MMP-2 expressing transfected cells provided by Dr. Gregory Goldberg of Washington University.
(§2) The enzyme substrate was a methoxycoumarin-containing polypeptide having the following sequence:
(§3) MCA-ProLeuGlyLeuDpaAlaArgNH2
(§4) Here, “MCA” is methoxycoumarin and “Dpa” is 3-(2,4-dinitrophenyl)-L-2,3-diaminopropionyl alanine.
(§5) These solutions were then compared to a control (which contained equal amount of DMSO/buffer solution, but no hydroxamate compound) using Microfluor™ White Plates (Dynatech, Chantilly, Va.). Specifically, The MMPs were activated with APMA or trypsin. […] The control likewise was incubated at room temperature in separate plates with the MMP and 4 uM of the MMP substrate. […] Inhibition was measured as a reduction in fluorescent intensity as a function of inhibitor concentration using a Perkin Elmer (Norwalk, Conn.) L550 plate reader. The IC50's were then calculated from these measurements.

Recombinant human MMP-1 = target: T2, Recombinant human MMP-1 (Homo sapiens, UniProt P03956)
T2 construct: made in house; host or cells: transfected HT-1080 cells
T2 sequence (P03956 100-469): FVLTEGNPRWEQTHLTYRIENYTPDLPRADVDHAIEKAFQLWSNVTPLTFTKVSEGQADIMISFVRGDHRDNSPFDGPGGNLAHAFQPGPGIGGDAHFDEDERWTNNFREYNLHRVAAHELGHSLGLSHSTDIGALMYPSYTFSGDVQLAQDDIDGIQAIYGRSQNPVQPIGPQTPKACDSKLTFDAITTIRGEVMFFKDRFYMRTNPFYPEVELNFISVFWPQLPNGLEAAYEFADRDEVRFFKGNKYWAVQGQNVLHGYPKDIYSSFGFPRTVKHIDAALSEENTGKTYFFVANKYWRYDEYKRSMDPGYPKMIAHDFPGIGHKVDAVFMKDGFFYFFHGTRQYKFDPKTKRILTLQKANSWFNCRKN
Method: as §1
The MMP-1 was obtained from MMP-1 expressing transfected HT-1080 cells provided by Dr. Harold Welgus of Washington University in St. Louis, Mo. The MMP-1 was activated using 4-aminophenylmercuric acetate (APMA), and then purified over a hydroxamic acid column.
as §2, §3, §4, §5

Recombinant human MMP-13 = target: T3, Recombinant human MMP-13 (Homo sapiens, UniProt P45452)
T3 construct: made in house; host or cells: baculovirus / insect cells
Method: as §1
The expressed proenzyme was first purified over a heparin agarose column, and then over a chelating zinc chloride column. The proenzyme was then activated by APMA for use in the assay.
as §2, §3, §4, §5

| SMILES | IC50 (Recombinant human MMP-2; read-out: MMP-2 IC50) | IC50 (Recombinant human MMP-1) | IC50 (Recombinant human MMP-13; read-out: MMP-13 IC50) | IC50 (Recombinant human MMP-2; MMP-2 IC50(nM)) | IC50 (Recombinant human MMP-13; MMP-13 IC50(nM)) |
| --- | --- | --- | --- | --- | --- |
| CC(C)COc1ccc(C(=O)C2CCN(c3ccc(S(=O)(=O)C4(C(=O)NO)CCN(C5CC5)CC4)cc3)CC2)cc1 [Example 216] | 46.4 nM | > 10 µM | 1.5 nM | – | – |
| C#CCN1CCC(C(=O)NO)(S(=O)(=O)c2ccc(N3CCC(C(=O)c4cccc(OC)c4)CC3)cc2)CC1 [Example 155] | 43.8 nM | > 10 µM | 1.4 nM | – | – |
| C#CCN1CCC(C(=O)NO)(S(=O)(=O)c2ccc(N3CCC(C(=O)c4ccc(C)cc4)CC3)cc2)CC1 [Example 152] | 56.3 nM | > 10 µM | 0.6 nM | – | – |
| CC(C)Oc1ccc(C(=O)C2CCN(c3ccc(S(=O)(=O)C4(C(=O)NO)CCN(C5CC5)CC4)cc3)CC2)cc1 [Example 215] | 22.7 nM | > 10 µM | 0.9 nM | – | – |
| Cc1ccc(N2CCN(C(=O)C3CCN(c4ccc(S(=O)(=O)C5(C(=O)NO)CCOCC5)cc4)CC3)CC2)c(C)c1 [Example 9] | 5600 nM | > 10 µM | 12.2 nM | – | – |
| CCC(C)Cc1ccc(C(=O)C2CCN(c3ccc(S(=O)(=O)C4(C(=O)NO)CCN(CCOC)CC4)cc3)CC2)cc1 (stereo not drawn) [Example 205] | 412 nM | > 10 µM | < 0.1 nM | – | – |
| O=C(C1CCN(c2ccc(S(=O)(=O)C3(C(=O)NO)CCOCC3)cc2)CC1)N1CCN(c2ccccc2F)CC1 [Example 12] | – | > 10 µM | – | 1400 nM | 6.7 nM |
| COCCN1CCC(C(=O)NO)(S(=O)(=O)c2ccc(N3CCC(c4ccc(OC)cc4)CC3)cc2)CC1 [Example 267] | 1.7 nM | > 10 µM | 0.4 nM | – | – |
| COCCN1CCC(C(=O)NO)(S(=O)(=O)c2ccc(N3CCC(C(=O)c4ccc(OC5CCCC5)cc4)CC3)cc2)CC1 [Example 227] | 132 nM | > 10 µM | 1.4 nM | – | – |
| C#CCN1CCC(C(=O)NO)(S(=O)(=O)c2ccc(N3CCC(C(=O)c4cccc(C)c4)CC3)cc2)CC1 [Example 154] | 176 nM | > 10 µM | 2.4 nM | – | – |
| COCCN1CCC(C(=O)NO)(S(=O)(=O)c2ccc(N3CCC(C(=O)c4ccc(OC)cc4)CC3)cc2)CC1 [Example 156] | 1340 nM | > 10 µM | 0.7 nM | – | – |
| COc1ccc(C(=O)C2CCN(c3ccc(S(=O)(=O)C4(C(=O)NO)CCN(CC5CC5)CC4)cc3)CC2)cc1 [Example 188] | 250 nM | > 10 µM | 2 nM | – | – |
| CCN1CCC(C(=O)NO)(S(=O)(=O)c2ccc(N3CCC(C(=O)c4ccc(OC)cc4)CC3)cc2)CC1 [Example 194] | 1230 nM | > 10 µM | 9.1 nM | – | – |
| C=CCN1CCC(C(=O)NO)(S(=O)(=O)c2ccc(N3CCC(C(=O)c4ccc(OC)cc4)CC3)cc2)CC1 [Example 182] | 115 nM | > 10 µM | 1.1 nM | – | – |
| CCC(C)Cc1ccc(C(=O)C2CCN(c3ccc(S(=O)(=O)C4(C(=O)NO)CCN(CC)CC4)cc3)CC2)cc1 (stereo not drawn) [Example 233] | 1050 nM | > 10 µM | 1.2 nM | – | – |
| O=C(c1ccc2ccccc2c1)C1CCN(c2ccc(S(=O)(=O)C3(C(=O)NO)CCN(CC4CC4)CC3)cc2)CC1 [Example 187] | 242 nM | > 10 µM | 2.7 nM | – | – |
| CCC(C)Cc1ccc(C(=O)C2CCN(c3ccc(S(=O)(=O)C4(C(=O)NO)CCN(C5CC5)CC4)cc3)CC2)cc1 (stereo not drawn) [Example 200] | 1400 nM | > 10 µM | 0.5 nM | – | – |
| C#CCN1CCC(C(=O)NO)(S(=O)(=O)c2ccc(N3CCC(C(=O)c4ccc(Cl)cc4)CC3)cc2)CC1 [Example 153] | 30.6 nM | > 10 µM | 0.2 nM | – | – |

| SMILES | IC50 (Recombinant human MMP-2; read-out: MMP-2 IC50) | IC50 (Recombinant human MMP-1) | IC50 (Recombinant human MMP-13; read-out: MMP-13 IC50) | IC50 (Recombinant human MMP-2; MMP-2 IC50(nM)) | IC50 (Recombinant human MMP-13; MMP-13 IC50(nM)) |
| --- | --- | --- | --- | --- | --- |
| C=CCN1CCC(C(=O)NO)(S(=O)(=O)c2ccc(N3CCC(C(=O)c4ccc(C)c(C)c4)CC3)cc2)CC1 [Example 158] | 218 nM | > 10 µM | 2.4 nM | – | – |
| CCN1CCC(C(=O)NO)(S(=O)(=O)c2ccc(N3CCC(C(=O)c4ccc(N(C)C)cc4)CC3)cc2)CC1 [Example 168] | 2180 nM | > 10 µM | 2.1 nM | – | – |
| C#CCN1CCC(C(=O)NO)(S(=O)(=O)c2ccc(N3CCC(C(=O)c4ccc5ccccc5c4)CC3)cc2)CC1 [Example 175] | 137 nM | > 10 µM | 0.7 nM | – | – |
| COCCN1CCC(C(=O)NO)(S(=O)(=O)c2ccc(N3CCC(C(=O)c4ccc(CN(C)C)s4)CC3)cc2)CC1 [Example 223] | 80.4 nM | > 10 µM | 2.5 nM | – | – |
| CC(C)N1CCN(C(=O)C2CCN(c3ccc(S(=O)(=O)C4(C(=O)NO)CCOCC4)cc3)CC2)CC1 [Example 15] | 5500 nM | > 10 µM | 28 nM | – | – |
| O=C(c1ccc(CC2CCCC2)cc1)C1CCN(c2ccc(S(=O)(=O)C3(C(=O)NO)CCOCC3)cc2)CC1 [Example 379] | 1270 nM | > 10 µM | 0.6 nM | – | – |
| COCCN1CCC(C(=O)NO)(S(=O)(=O)c2ccc(N3CCC(C(=O)c4ccc(CCC(C)C)cc4)CC3)cc2)CC1 [Example 246] | 2710 nM | > 10 µM | 1 nM | – | – |
| O=C(C1CCN(c2ccc(S(=O)(=O)C3(C(=O)NO)CCOCC3)cc2)CC1)N1CCN(c2ccc([N+](=O)[O-])cc2)CC1 [Example 25] | 445 nM | > 10 µM | 4 nM | – | – |
| CCN1CCC(C(=O)NO)(S(=O)(=O)c2ccc(N3CCC(C(=O)c4ccc(Cl)c(C)c4)CC3)cc2)CC1 [Example 221] | 301 nM | > 10 µM | 3.4 nM | – | – |
| COc1ccc(C2CCN(c3ccc(S(=O)(=O)C4(C(=O)NO)CCN(CC5CC5)CC4)cc3)CC2)cc1 [Example 268] | 5 nM | > 10 µM | 1.2 nM | – | – |
| O=C(C1CCN(c2ccc(S(=O)(=O)C3(C(=O)NO)CCOCC3)cc2)CC1)N1CCN(c2ncccn2)CC1 [Example 23] | – | > 10 µM | – | 1600 nM | 6.4 nM |
| CCc1ccc(C(=O)C2CCN(c3ccc(S(=O)(=O)C4(C(=O)NO)CCN(CC)CC4)cc3)CC2)cc1 [Example 222] | 197 nM | > 10 µM | 1 nM | – | – |
| CCN1CCC(C(=O)NO)(S(=O)(=O)c2ccc(N3CCC(C(=O)c4ccc(C)cc4)CC3)cc2)CC1 [Example 208] | 19.6 nM | > 10 µM | 0.1 nM | – | – |
| CCCc1ccc(C(=O)C2CCN(c3ccc(S(=O)(=O)C4(C(=O)NO)CCN(CCOC)CC4)cc3)CC2)cc1 [Example 120] | 126 nM | > 10 µM | 0.85 nM | – | – |
| O=C(c1ccc(CCC2CCCC2)cc1)C1CCN(c2ccc(S(=O)(=O)C3(C(=O)NO)CCN(C4CC4)CC3)cc2)CC1 [Example 199] | 3390 nM | > 10 µM | 11.7 nM | – | – |
| CCc1ccc(C(=O)C2CCN(c3ccc(S(=O)(=O)C4(C(=O)NO)CCN(S(C)(=O)=O)CC4)cc3)CC2)cc1 [Example 220] | 290 nM | > 10 µM | 1.7 nM | – | – |
| C=CCN1CCC(C(=O)NO)(S(=O)(=O)c2ccc(N3CCC(C(=O)c4ccc(Cl)cc4)CC3)cc2)CC1 [Example 180] | 52.7 nM | > 10 µM | 0.3 nM | – | – |
